Data from patent US7815900B1, “Use of C3-C5 monosaccharides to protect keratinous fibers” (L'Oréal S.A., priority 2000, dated 2010).

Assays:
[1] = DSC doublet peak area (α-structure) of hair after heat cycles; settings: for Doublet Peak Area, normalized: 5 cycles
Procedure: (§1) Normal blonde hair was bleached with Clairol Basic White Bleach (40 volume H2O2) for 20 min at standard room temperature and humidity. The bleached swatches were rinsed with tap water, and soaked in an excess of deionized water for 2 hours. The swatches were air-dried and equilibrated for 48 hours prior to further treatment. Some of the bleached swatches were subsequently “permed” using a Reforming Lotion (10% TGA, pH 8.8, 20 minutes) and then neutralized with 2% H2O2, pH 3 (5 minutes). The bleached/permed swatches were rinsed with tap water, and soaked in an excess of deionized water for 2 hours. The swatches were air-dried and equilibrated for 48 hours prior to further treatment. The swatches that were heat treated were treated with 0.06M solutions of hexoses and pentoses for 10 min at 45° C. and then were heated for 12 cycles. The swatches were rinsed after the heat application.
In the DSC tests, finely cut hair (4-5 mg) was crimped in an aluminum pan that was punctured prior to each run. The samples were heated from 25° C. to 300° C., at a scanning rate of 20° C./min, with 5 runs per treatment. The results were averaged.
(§2) Normal blonde hair was bleached with Clairol Basic White Bleach, 40 volume H2O2, for 20 min at room temperature. One batch of normal and bleached hair swatches underwent five heat cycles at 130° C., where one treatment cycle involved the following steps (1-4):
(§3) 1. The swatches were treated with 0.06 M solutions of monosaccharides in deionized water (about 1 wt %) for 10 min at 45° C.
(§4) 2. The treated swatches were blow-dried for 1 min.
(§5) 3. The heat was applied for 1 min in the form of a flat hair iron Windmere “Solid Gold” (130° C.).
(§6) 4. The swatches were rinsed and blot-dried with a paper-towel.
(§7) The treatment solutions included four pentoses (D-xylose, D-arabinose, D-lyxose, and D-ribose, 1% each) and one hexose (1.2% D-glucose). Deionized water was used as a control treatment. After the heat experiment, the hair was rinsed in water, air-dried, and equilibrated for 24 hours in the humidity chamber at 25° C. and 50% RH prior to further testing. These swatches are referred to as treated at 130° C.
(§8) A second batch of normal and bleached hair swatches were treated in a similar way and blow-dried, without application of the hot iron. The treatment was also repeated 5 times, the swatches from the second batch are referred to as treated at 45° C.
Normal blonde hair was subjected to 12 heat cycles, as described in Example 2, using the following treatment solutions: 0.1% D-Xylose (pentose), 0.1% D-Erythrose (tetrose), and 0.1% D-Glyceraldehyde (triose). Each of the C3 to C5 monosaccharides was effective in protecting or reducing the damage to the α-structure of the hair, as compared to water treatment (Table 15).
Normal blonde hair was subjected to 12 heat cycles, as described in Example 2, using 0.1 wt % of the pentose amine derivative, D-Lyxosylimine in deionized water.

[2] = as above; settings: for Doublet Peak Area: bleached/permed hair after 12 heat cycles, 0.06 M solutions
Procedure: Normal blonde hair was bleached with Clairol Basic White Bleach (40 volume H2O2) for 20 min at standard room temperature and humidity. The bleached swatches were rinsed with tap water, and soaked in an excess of deionized water for 2 hours. The swatches were air-dried and equilibrated for 48 hours prior to further treatment. Some of the bleached swatches were subsequently “permed” using a Reforming Lotion (10% TGA, pH 8.8, 20 minutes) and then neutralized with 2% H2O2, pH 3 (5 minutes). The bleached/permed swatches were rinsed with tap water, and soaked in an excess of deionized water for 2 hours. The swatches were air-dried and equilibrated for 48 hours prior to further treatment. The swatches that were heat treated were treated with 0.06M solutions of hexoses and pentoses for 10 min at 45° C. and then were heated for 12 cycles. The swatches were rinsed after the heat application. In the DSC tests, finely cut hair (4-5 mg) was crimped in an aluminum pan that was punctured prior to each run. The samples were heated from 25° C. to 300° C., at a scanning rate of 20° C./min, with 5 runs per treatment. The results were averaged. Normal blonde hair was divided in two batches. The hair from the first batch was bleached with Clairol Basic White Bleach, 40 volume H2O2, for 20 min at room temperature and humidity. The hair from the second batch was first bleached as above, and then permed: Reforming lotion-10% Thioglycolic acid, pH 8.8, 20 min; neutralizer-2% hydrogen peroxide, 5 min. The oxidatively damaged hair was equilibrated for 24 hours prior to further testing. Both the bleached and the bleached/permed hair were subjected to heat treatment, as in Example 2. The heat treatment experiment involved 12 heat cycles including application of sugar or control solution before each heat application, and rinsing after the heat application. Deionized water was used as a control treatment. After the heat experiment, the hair was rinsed in water, air-dried, and equilibrated for 24 h in the humidity chamber at 25° C. and 50% RH prior to further testing. The effect of the hexoses vs. pentoses on the dry tensile strength (INSTRON) and the alpha-structure (doublet peak area, DSC) was tested on the bleached hair (Table 13). The effect of a hexose (D-glucose) vs. a pentose (D-Xylose) on wet tensile strength (DIA-STRON) was tested both on the bleached and the bleached/permed hair (Table 14). Application of 0.06M solutions of pentoses protected the bleached and the bleached/permed hair against thermal damage (α-structure; wet and dry tensile strength).

[3] = Dry tensile strength (Instron) after heat cycles; settings: normal blonde hair, 0.06 M solutions, n = 50 fibers; for Work 25%: dry, 5 cycles at 45° C.; for Work 25% (Dry): 5 heat cycles at 130° C.
Procedure: (§9) Tensile strength was determined using both the Instron (50 dry fibers per tests) and the Dia-Stron (100 wet fibers per test), with the stretching rate of 100 mm/min. The following parameters were determined: Young's Modulus (N/m^2), Work to stretch 25% (J/m^2); Extension to Break (degree of elongation) (%); Work to Break (J/m^2).
as §2, §3, §4, §5, §6, §7, §8

[4] = Dry tensile strength (Instron) after heat cycles
Procedure: as §1, §9, §2, §3, §4, §5, §6, §7, §8
Both the bleached and the bleached/permed hair were subjected to heat treatment, as in Example 2. The heat treatment experiment involved 12 heat cycles including application of sugar or control solution before each heat application, and rinsing after the heat application. Deionized water was used as a control treatment.
After the heat experiment, the hair was rinsed in water, air-dried, and equilibrated for 24 h in the humidity chamber at 25° C. and 50% RH prior to further testing. The effect of the hexoses vs. pentoses on the dry tensile strength (INSTRON) and the alpha-structure (doublet peak area, DSC) was tested on the bleached hair (Table 13). The effect of a hexose (D-glucose) vs. a pentose (D-Xylose) on wet tensile strength (DIA-STRON) was tested both on the bleached and the bleached/permed hair (Table 14). Application of 0.06M solutions of pentoses protected the bleached and the bleached/permed hair against thermal damage (α-structure; wet and dry tensile strength).

[5] = normal blonde hair, 5 cycles at 45° C., 0.06 M solutions
[6] = normal blonde hair, 45° C. (blow drying)
[7] = normal blonde hair, 130° C. (blow-drying + hot iron)
[8] = normal blonde hair, 5 heat cycles at 130° C., 0.06 M solutions
[9] = bleached hair after 12 heat cycles, 0.06 M solutions, n = 100 fibers
[10] = bleached hair, 5 heat cycles at 130° C., 0.06 M solutions, n = 50 fibers
[11] = dry bleached hair, 12 heat cycles, 0.06 M, INSTRON, n = 50 fibers
[12] = dry, bleached hair, 5 cycles at 45° C., 0.06 M solutions, n = 50 fibers

Row | SMILES | Doublet Peak Area [1, 5] | Doublet Peak Area, normalized [1, 6] | Doublet Peak Area, normalized [1, 7] | Doublet Peak Area [1, 8] | Doublet Peak Area [2] | Work 25% [3] | Work 25% (Dry) [3] | Work 25% (Dry) [4, 9] | Work 25% (Dry) [4, 10] | Extension-Break [4, 11] | Work 25% [4, 11] | Work-Break [4, 11] | Young's Modulus [4, 11] | Work 25% [4, 12] | Normalized area ([1]; normal blonde hair after 12 heat cycles, 1% in water) | Doublet Peak Area ([1]; normal blonde hair, 0.1 wt % solutions, 12 heat cycles at 130° C.) | protection of the hair structure as compared to water (DSC), in words ([1]; normal blonde hair, 12 heat cycles, 1% in water) | Normalized area ([2]; bleached/permed hair, 12 heat cycles, 0.06 M) | protection of dry tensile strength, in words ([4]; hair treated 5 cycles at 45° C. and at 130° C.)
1 | O=C[C@H](O)[C@@H](O)[C@H](O)[C@H](O)CO [D-Glucose, reference compound] | 11.65 +/− 4.98 J/g hair | 11.65 +/− 4.98 J/g hair | 7.60 +/− 1.01 J/g hair | 7.60 +/− 1.01 J/g hair | 4.96 +/− 0.32 J/g hair | 837.0 +/− 255.9 J/m^2 | 836.9 +/− 119.6 J/m^2 | 913.9 +/− 158.2 J/m^2 | 864.7 +/− 184.4 J/m^2 | 56.01 +/− 7.21% | 913.9 +/− 158.2 J/m^2 | 2,599 +/− 604 J/m^2 | 4,623 +/− 813 MN/m^2 | 984.6 +/− 169.6 J/m^2 |  |  |  |  | 
2 | O=C[C@H](O)[C@@H](O)[C@H](O)CO [D-Xylose] | 20.17 +/− 11.98 J/g hair | 20.17 +/− 11.98 J/g hair | 15.27 +/− 5.14 J/g hair | 15.27 +/− 5.14 J/g hair | 9.78 +/− 1.48 J/g hair | 1,155 +/− 224 J/m^2 | 1,150 +/− 818 J/m^2 | 1,204 +/− 215 J/m^2 | 1,051 +/− 191 J/m^2 | 55.28 +/− 7.08% | 1,204 +/− 215 J/m^2 | 3,161 +/− 771 J/m^2 | 5,802 +/− 1,161 MN/m^2 | 1,182 +/− 215 J/m^2 | 16.05 +/− 5.05 J/g hair | 12.74 +/− 2.32 J/g hair | appeared to protect the hair structure | 9.78 +/− 1.48 J/g hair | improved protection both at 45 °C and at 130 °C
